Assay: Enrichment (partitioning from water to air in segmented flow), enrichment factor
Type: physicochemical
Conditions: calculated enrichment factor
Excerpt: That is, each enrichment factor is a direct measure of the detection capabilities of the method and apparatus with respect to a specific volatile compound compound.
Both the detection limit in air and quantitation limit in water will vary depending on the sensitivity of the analytical equipment used. Thus, at any given testing site the sensitivity of the particular gas chromatograph used will determine detection and quantitation limits.
Without benefit of known enrichment factor for each compound compound present, extrapolation of the quantitation limit (LOQ) for each compound was accomplished by multiplying the signal-to-noise ratio of the test instrument by ten. These quantitation limits are a reflection of both the detector sensitivity (LOD) and what can be referred to as the enrichment factor or magnification of the concentration into the air phase. Thus, an enrichment factor was calculated for each compound as follows: [formula]
The enrichment factor depends on the volatility, water solubility, and diffusion coefficient of the particular compound.

Compound	EF (air/water)
ClC(Cl)C(Cl)Cl [1,1,2,2-TETRACHLOROETHANE]	2.0
ClCC(Cl)Cl [1,1,2-TRICHLOROETHANE]	3.9
CC(Cl)(Cl)Cl [1,1,-TRICHLOROETHANE]	6.8
CC(Cl)Cl [1,1-DICHLOROETHANE]	6.7
Clc1ccccc1Cl [1,2-DICHLOROBENZENE]	1.7
ClCCCl [1,2-DICHLOROETHANE]	6.8
CC(Cl)CCl (stereo not drawn) [1,2-DICHLOROPROPANE]	7.7
ClC(Cl)Br [BROMODICHLOROMETHANE]	7.7
BrC(Br)Br [BROMOFORM]	2.0
ClC(Cl)(Cl)Cl [CARBON TETRACHLORIDE]	7.7
Clc1ccccc1 [CHLOROBENZENE]	4.0
ClC(Br)Br [CHLORODIBROMOMETHANE]	3.7
ClC(Cl)Cl [CHLOROFORM]	6.6
CBr [METHYL BROMIDE]	76
ClCCl [METHYLENE CHLORIDE]	8.2
ClC(Cl)=C(Cl)Cl [PERCHLOROETHYLENE]	4.8
ClC=C(Cl)Cl [TRICHLOROETHYLENE]	9.9
C=C(Cl)Cl [[…]]	12
Cl/C=C\CCl [c-1,3 DICHLOROPROPENE]	3.6
Cl/C=C/Cl [t-1,2-DICHLOROETHYLENE]	16
Cl/C=C/CCl [t-1,3-DICHLOROPROPENE]	7.2
